Values after ≈ are worked out from the molar mass of the structure shown.
What was measured:
Format in all cases: functional
[1] = tested on: Pseudomonas aeruginosa; experiment: Antimicrobial activity against Pseudomonas aeruginosa MTCC 1688 after 24 hrs by agar well diffusion method; conditions: for MIC: Pseudomonas aeruginosa, MTCC 1688, 24 h
[2] = tested on: Candida albicans; experiment: Antifungal activity against Candida albicans MTCC 227 after 2 to 3 days by agar well diffusion method
[3] = tested on: Staphylococcus aureus; experiment: Antimicrobial activity against Staphylococcus aureus MTCC 96 after 24 hrs by agar well diffusion method; conditions: for MIC: Staphylococcus aureus, MTCC 96, 24 h
[4] = tested on: Escherichia coli; experiment: Antimicrobial activity against Escherichia coli MTCC 1650 after 24 hrs by agar well diffusion method; conditions: for MIC: Escherichia coli, MTCC 1650, 24 h
[5] = tested on: Aspergillus niger; experiment: Antifungal activity against Aspergillus niger MTCC 1781 after 2 to 3 days by agar well diffusion method
[6] = tested on: Bacillus subtilis; experiment: Antimicrobial activity against Bacillus subtilis MTCC 441 after 24 hrs by agar well diffusion method; conditions: for MIC: Bacillus subtilis, MTCC 441, 24 h

Row | Compound | inhibition zone (IZ) [1] | MIC [1] | inhibition zone (IZ) [2] | MIC ([2]; Candida albicans, MTCC 227) | inhibition zone (IZ) [3] | MIC [3] | inhibition zone (IZ) [4] | MIC [4] | inhibition zone (IZ) [5] | MIC ([5]; Aspergillus niger, MTCC 1781) | inhibition zone (IZ) [6] | MIC [6] | MIC [2] | MIC [5]
1 | Cc1ccc(Nc2nc(Nc3ccc(C)cc3)nc(Nc3ccc(C#N)nc3)n2)cc1.Cl | 10 mm | 25 µg/mL | 14 mm | 25 µg/mL | 12 mm | 12.5 µg/mL | 12 mm | 12.5 µg/mL | 14 mm | 100 µg/mL | 12 mm | 25 µg/mL |  | 
2 | Cl.N#Cc1ccc(Nc2nc(NC3CCCC3)nc(NC3CCCC3)n2)cn1 | 12 mm | 12.5 µg/mL | 12 mm | 25 µg/mL | 12 mm | 6.25 µg/mL | 10 mm | 6.25 µg/mL | 12 mm | 25 µg/mL | 12 mm | 6.25 µg/mL |  | 
3 | Cl.N#Cc1ccc(Nc2nc(NC3CCCCC3)nc(NC3CCCCC3)n2)cn1 | 10 mm | 6.25 µg/mL | 14 mm | 12.5 µg/mL | 12 mm | 6.25 µg/mL | 12 mm | 6.25 µg/mL | 14 mm | 12.5 µg/mL | 12 mm | 6.25 µg/mL |  | 
4 | Cl.N#Cc1ccc(Nc2nc(NCc3ccco3)nc(NCc3ccco3)n2)cn1 | 12 mm | 6.25 µg/mL | 12 mm | 12.5 µg/mL | 12 mm | 6.25 µg/mL | 14 mm | 6.25 µg/mL | 12 mm | 12.5 µg/mL | 10 mm | 6.25 µg/mL |  | 
5 | CN1CCN(c2nc(Nc3ccc(C#N)nc3)nc(N3CCN(C)CC3)n2)CC1.Cl | 10 mm | 12.5 µg/mL | 10 mm | 50 µg/mL | 12 mm | 12.5 µg/mL | 12 mm | 12.5 µg/mL | 12 mm | 50 µg/mL | 12 mm | 12.5 µg/mL |  | 
6 | Cl.N#Cc1ccc(Nc2nc(N3CCNCC3)nc(N3CCNCC3)n2)cn1 | 10 mm | 50 µg/mL | 14 mm | 25 µg/mL | 12 mm | 50 µg/mL | 12 mm | 50 µg/mL | 14 mm | 100 µg/mL | 12 mm | 50 µg/mL |  | 
7 | COc1cccc(Nc2nc(Nc3ccc(C#N)nc3)nc(Nc3cccc(OC)c3)n2)c1.Cl | 12 mm | 12.5 µg/mL | 12 mm | 25 µg/mL | 12 mm | 6.25 µg/mL | 14 mm | 6.25 µg/mL | 12 mm | 25 µg/mL | 10 mm | 12.5 µg/mL |  | 
8 | Cl.N#Cc1ccc(Nc2nc(Nc3ccc(F)cc3)nc(Nc3ccc(F)cc3)n2)cn1 | 12 mm | 50 µg/mL | 12 mm | 25 µg/mL | 12 mm | 25 µg/mL | 14 mm | 25 µg/mL | 12 mm | 25 µg/mL | 10 mm | 25 µg/mL |  | 
9 | NYSTATIN |  |  | 20 mm |  |  |  |  |  | 20 mm |  |  |  | 6.25 µg/mL | 6.25 µg/mL
10 | Cl.N#Cc1ccc(Nc2nc(N3CCCC3)nc(N3CCCC3)n2)cn1 | 12 mm | 100 µg/mL | 12 mm | 50 µg/mL | 12 mm | 100 µg/mL | 12 mm | 50 µg/mL | 14 mm | 50 µg/mL | 12 mm | 100 µg/mL |  | 
11 | Cl.N#Cc1ccc(Nc2nc(N3CCCCC3)nc(N3CCCCC3)n2)cn1 | 12 mm | 25 µg/mL | 10 mm | 50 µg/mL | 12 mm | 50 µg/mL | 14 mm | 25 µg/mL | 14 mm | 25 µg/mL | 10 mm | 50 µg/mL |  | 
12 | Cl.N#Cc1ccc(Nc2nc(N3CCOCC3)nc(N3CCOCC3)n2)cn1 | 10 mm | 50 µg/mL | 14 mm | 50 µg/mL | 12 mm | 50 µg/mL | 12 mm | 50 µg/mL | 14 mm | 100 µg/mL | 12 mm | 50 µg/mL |  | 
13 | COCCNc1nc(NCCOC)nc(Nc2ccc(C#N)nc2)n1.Cl | 12 mm | 6.25 µg/mL | 12 mm | 12.5 µg/mL | 12 mm | 12.5 µg/mL | 12 mm | 6.25 µg/mL | 14 mm | 12.5 µg/mL | 12 mm | 6.25 µg/mL |  | 
14 | CC(=O)N1CCN(c2nc(Nc3ccc(C#N)nc3)nc(N3CCN(C(C)=O)CC3)n2)CC1.Cl | 10 mm | 50 µg/mL | 14 mm | 25 µg/mL | 12 mm | 50 µg/mL | 12 mm | 50 µg/mL | 14 mm | 100 µg/mL | 12 mm | 50 µg/mL |  | 
15 | Cl.N#Cc1ccc(Nc2nc(N3CCN(C(=O)c4ccccc4)CC3)nc(N3CCN(C(=O)c4ccccc4)CC3)n2)cn1 | 14 mm | 25 µg/mL | 14 mm | 50 µg/mL | 12 mm | 12.5 µg/mL | 12 mm | 25 µg/mL | 12 mm | 50 µg/mL | 10 mm | 12.5 µg/mL |  | 
16 | Cl.N#Cc1ccc(Nc2nc(NCCN3CCOCC3)nc(NCCN3CCOCC3)n2)cn1 | 12 mm | 25 µg/mL | 12 mm | 25 µg/mL | 12 mm | 50 µg/mL | 14 mm | 25 µg/mL | 14 mm | 50 µg/mL | 10 mm | 25 µg/mL |  | 
17 | CN(C)CCNc1nc(NCCN(C)C)nc(Nc2ccc(C#N)nc2)n1.Cl | 12 mm | 12.5 µg/mL | 14 mm | 25 µg/mL | 12 mm | 12.5 µg/mL | 14 mm | 12.5 µg/mL | 12 mm | 25 µg/mL | 12 mm | 25 µg/mL |  | 
18 | CN[C@@H]1[C@H](O[C@H]2[C@H](O[C@H]3[C@H](O)[C@@H](O)[C@H](N=C(N)N)[C@@H](O)[C@@H]3N=C(N)N)O[C@@H](C)[C@]2(O)C=O)O[C@@H](CO)[C@H](O)[C@H]1O [STREPTOMYCIN] | 24 mm | 6.25 µg/mL (≈ 10.7 µM) |  |  | 20 mm | 6.25 µg/mL (≈ 10.7 µM) | 22 mm | 6.25 µg/mL (≈ 10.7 µM) |  |  | 22 mm | 6.25 µg/mL (≈ 10.7 µM) |  | 
19 | Cl.N#Cc1ccc(Nc2nc(Nc3cc[nH]n3)nc(Nc3cc[nH]n3)n2)cn1 | 14 mm | 12.5 µg/mL | 14 mm | 12.5 µg/mL | 12 mm | 12.5 µg/mL | 12 mm | 6.25 µg/mL | 14 mm | 12.5 µg/mL | 10 mm | 6.25 µg/mL |  | 
20 | Cl.N#Cc1ccc(Nc2nc(N3CCN(c4ccccc4)CC3)nc(N3CCN(c4ccccc4)CC3)n2)cn1 | 10 mm | 6.25 µg/mL | 14 mm | 25 µg/mL | 12 mm | 6.25 µg/mL | 12 mm | 6.25 µg/mL | 14 mm | 25 µg/mL | 10 mm | 6.25 µg/mL |  | 

From ChEMBL document CHEMBL2057118, “Synthesis and biological evaluation of novel 2,4,6-triazine derivatives as antimicrobial agents” (2012)
